From publication PMC7199514 (Frontiers in Chemistry, 2020)

How the values were obtained:
A549 cells = test: MTT antiproliferation assay, A549; conditions: read-out: IC50 to cell lines, A549, exposed to tested compounds for 48 h
Experimental: (§2) The cancer cell lines HeLa, A549, MCF-7, and A431 were obtained from the Center for Cell Resource of Peking Union Medical College Hospital, except that A549 cisplatin-resistant subline A549/DDP was obtained by incubation of increased concentration of cisplatin in the culture media until the IC50 value toward cisplatin was above three times of that of A549 cells. The cells were maintained in DMEM (Invitrogen, USA) media supplemented with 10% fetal calf serum (HyClone, USA), 1% PS at 310 K with 5% CO2. The IC50 values were determined using 3-(4,5-dimethyl-2-thiazolyl)-2,5-diphenyl-2-H-tetrazolium bromide (MTT) assay. […] Then cells were exposed to each tested compound at eight concentrations for 48 h. The resulting solution was removed and washed for two times using PBS; then 100 μl cell culture medium containing MTT (0.5 mg/ml) was added to the wells and incubated at 310 K for 4 h. Finally, the MTT media was removed and 100 μl DMSO added to each well to dissolve the formazan crystals. The optical density (OD) values were measured using a microplate reader (SpectraMax M5) at the wavelength of 570 nm. […] The IC50 value was calculated in Origin 8.0 using the logistic regression model. All reported values were averages of six independent experiments and expressed as mean ± standard deviation (SD).

HeLa cells = test: MTT antiproliferation assay, HeLa; conditions: read-out: IC50 to cell lines, HeLa, exposed to tested compounds for 48 h
Experimental: as §2

[1] = system: A549 cisplatin-resistant subline A549/DDP; test: MTT antiproliferation assay, A549/DDP; conditions: read-out: IC50 to cell lines, A549/DDP, exposed to tested compounds for 48 h
Experimental: as §2

A431 cells = test: MTT antiproliferation assay, A431; conditions: read-out: IC50 to cell lines, A431, exposed to tested compounds for 48 h
Experimental: as §2

MCF-7 cells = test: MTT antiproliferation assay, MCF-7; conditions: read-out: IC50 to cell lines, MCF-7, exposed to tested compounds for 48 h
Experimental: as §2

[2] = target: T1, EGFR (kinase domain only) (Homo sapiens, UniProt P00533); test: EGFR inhibition by ELISA; assay type: biochemical; conditions: ELISA in the presence of 200 μM of ATP
T1 construct: mixed with as-prepared EGFR (kinase domain only) solution; purchased Cell Signaling Technology, Inc. (assay kit); 7909
T1 sequence (P00533 712-979 limits assumed): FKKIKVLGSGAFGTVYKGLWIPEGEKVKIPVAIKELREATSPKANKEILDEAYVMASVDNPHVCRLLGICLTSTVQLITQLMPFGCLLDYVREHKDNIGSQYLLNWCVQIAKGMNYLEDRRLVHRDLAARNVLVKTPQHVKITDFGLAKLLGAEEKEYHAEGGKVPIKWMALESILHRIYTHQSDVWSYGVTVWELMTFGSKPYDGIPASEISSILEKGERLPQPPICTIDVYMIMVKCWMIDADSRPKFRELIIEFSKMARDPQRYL
Experimental: Enzyme-linked immunosorbent assay (ELISA) was employed to evaluate the inhibition of compounds against EGFR. The ELISA screening was performed following the instruction provided by the supplier of the assay kits (no. 7909, Cell Signaling Technology, Inc.). An aliquot (10 μl) of the enzyme solution was added to 415 μl dithiothreitol (DTT) kinase buffer, which consists of 1.25 M DTT and 4 × HTScan® tyrosine kinase buffer [240 mM HEPES (pH 7.5), 20 mM MgCl2, 20 mM MnCl2, and 12 μM Na3VO4]. Each tested Pt compound was dissolved in dimethyl sulfoxide (DMSO) to give a 4 mM solution which was then diluted by deionized water prior to use. The ATP/peptide mixture was prepared by addition of 10 μl of 2.5 mM ATP to 125 μl of 6 μM substrate peptide and then diluted with D2O to 250 μl. An aliquot (12.5 μl) of the solution of a tested compound was mixed with as-prepared EGFR (kinase domain only) solution [12.5 μl, in 50% glycerol, containing 50 mM HEPES (pH = 7.6), 150 mM NaCl, 0.1% Triton, and 1 mM DTT, Sigma Chemical Company] and incubated at 298 K for 5 min, followed by addition of 25 μl of ATP/substrate mixture, and then the resulting mixture was incubated at 310 K for 1 h. The phosphorylation reaction was terminated by the addition of 50 μl/well stop buffer (50 mM EDTA, pH = 8). Each well of a microtiter plate was coated with 100 μl of 10 μg/ml streptavidin (Tianjin Biotechnology Co. Ltd., China) in carbonate–bicarbonate buffer and incubated overnight at 277 K and then blocked with 1.5% bovine serum albumin (BSA, Xinjingke Biotechnology Co. Ltd., China) in PBS/T (PBS solution containing 0.05% Tween-20) at 310 K for 2 h, followed by three times of washing with PBS/T prior to use. Then, 25 μL/well of each enzymatic reaction mixture and 75 μL/well of D2O were added to the plate (in triplicate) for incubation at 310 K for 1 h. Following three times of washing with PBS/T, 100 μl of primary antibody (phospho-tyrosine mouse mAb, 1:1,000 in PBS/T with 1.5% BSA) was added to each well, and the plate was incubated at 310 K for another 1 h. The plate was again washed three times with PBS/T, and then 100 μl of the secondary antibody (HRP-labeled goat anti-mouse IgG, from Zhongshan Golden Bridge Biotechnology Co. Ltd., China, diluted 1:1,000 in PBS/T with 1.5% BSA) was added to each well and incubated for 1 h at 310 K, followed by three times of washing with PBS/T. Finally, 100 μl of 3,3′,5,5′-tetramethylbenzidine (TMB, Xinjingke Biotechnology Co. Ltd., China) substrate was added to each well, and the plate was incubated at 310 K for 15 min, and then the reaction was stopped by addition of 100 μl of 2 M H2SO4 to each well, and the plate was read on the ELISA plate reader (SpectraMax M5 Molecular Devices Corporation) at 450 nm to determine the OD values. […]

calf thymus DNA (ct-DNA) [3] = test: Competitive displacement of EB from ct-DNA by fluorescence titration (intercalation); assay type: binding; conditions: Tris-HCl pH 7.4, 310 K, λex = 500 nm
Experimental: (§1) Complexes 2 and 4 were dissolved in DMSO to yield a panel of 0.25, 0.5, 1.0, 1.5, 2.0, 3.0, 4.0, and 5.0 mM solutions. The calf thymus DNA (ct-DNA) was dissolved in Tris-HCl buffer (pH = 7.4) to give a […] solution. Ethidium bromide (EB) (10 mM, 2 μl) or Hoechst 33342 (4 mM, 5 μl) and ct-DNA ([…], 978 or 975 μl) was incubated at 310 K for 0.5 h. Then the DMSO solution of complexes (20 μl) was added to the resulting solution and kept incubated. After 2 h, each reaction mixture was measured on an F-4500 fluorescence spectrophotometer (HITACHI) with excitation wavelength at 500 nm and emission spectra from 520 to 700 nm for EB mixed solution and excitation wavelength at 370 nm and emission spectra from 400 to 650 nm for Hoechst 33342 mixed solution. A modified Stern–Volmer plot (Sarwar et al., [2015]) was employed to evaluate the affinity of complexes toward DNA.

calf thymus DNA (ct-DNA) [4] = test: Competitive displacement of Hoechst 33342 from ct-DNA by fluorescence titration (minor groove binding); conditions: for affinity in minor groove binding relative to intercalation with DNA: Ksv Hoechst vs Ksv EB; for Ksv (Stern–Volmer quenching constant), replacing Hoechst from ct-DNA: Tris-HCl pH 7.4, 310 K, λex = 370 nm
Experimental: as §1

SMILES | IC50 (A549 cells) | IC50 (HeLa cells) | IC50 [1] | IC50 (A431 cells) | IC50 (MCF-7 cells) | IC50 [2] | Ksv (Stern–Volmer quenching constant), replacing EB from ct-DNA (calf thymus DNA (ct-DNA) [3]) | affinity in minor groove binding relative to intercalation with DNA (calf thymus DNA (ct-DNA) [4]) | Ksv (Stern–Volmer quenching constant), replacing Hoechst from ct-DNA (calf thymus DNA (ct-DNA) [4])
N.N.[Cl][Pt][Cl] [Cisplatin, reference compound] | 10.1 ± 1.6 µM | 12.9 ± 0.6 µM | 30.9 ± 1.1 µM | 11.1 ± 0.4 µM | 15.6 ± 0.8 µM |  |  |  | 
COc1cc2ncnc(Nc3ccc(F)c(Cl)c3)c2cc1OCCn1cc[n+]([Pt-2]23[n+]4ccccc4-c4cc(-c5ccc(C)cc5)cc([n+]42)-c2cccc[n+]23)c1.F[P-](F)(F)(F)(F)F.F[P-](F)(F)(F)(F)F [Complex 1] | 13.2 ± 1.8 µM | 29.8 ± 5 µM | 28.9 ± 1.7 µM | 7.7 ± 1.8 µM | 20.3 ± 2.7 µM | 9.2 ± 0.6 nM |  |  | 

Continued, in another order:

IC50 (A549 cells) | IC50 (HeLa cells) | IC50 [1] | IC50 (A431 cells) | IC50 (MCF-7 cells) | IC50 [2] | SMILES | Ksv (Stern–Volmer quenching constant), replacing EB from ct-DNA (calf thymus DNA (ct-DNA) [3]) | affinity in minor groove binding relative to intercalation with DNA (calf thymus DNA (ct-DNA) [4]) | Ksv (Stern–Volmer quenching constant), replacing Hoechst from ct-DNA (calf thymus DNA (ct-DNA) [4])
6.5 ± 2.5 µM | 19.4 ± 5.6 µM | 13.5 ± 1.8 µM | 1.4 ± 0.4 µM | 27.7 ± 2.2 µM | 7 ± 3 nM | COc1cc2ncnc(Nc3ccc(F)c(Cl)c3)c2cc1OCCCn1cc[n+]([Pt-2]23[n+]4ccccc4-c4cc(-c5ccc(C)cc5)cc([n+]42)-c2cccc[n+]23)c1.F[P-](F)(F)(F)(F)F.F[P-](F)(F)(F)(F)F [Complex 2] | 25900 M⁻¹ | ~ 10 times | 313000 M⁻¹
12.2 ± 2.2 µM | 13.4 ± 1.3 µM | 32 ± 1.6 µM | 7.4 ± 0.4 µM | 24.8 ± 1.1 µM | 10.9 ± 3 nM | COc1cc2ncnc(Nc3ccc(F)c(Cl)c3)c2cc1OCCn1cc[n+]([Pt-2]23[n+]4ccccc4-c4cc(-c5ccc(Br)cc5)cc([n+]42)-c2cccc[n+]23)c1.F[P-](F)(F)(F)(F)F.F[P-](F)(F)(F)(F)F [Complex 3] |  |  | 
11.6 ± 1.1 µM | 39.4 ± 0.1 µM | 26.6 ± 3 µM | 7.9 ± 3.2 µM | 19.9 ± 2.7 µM | 9.6 ± 2.5 nM | COc1cc2ncnc(Nc3ccc(F)c(Cl)c3)c2cc1OCCCn1cc[n+]([Pt-2]23[n+]4ccccc4-c4cc(-c5ccc(Br)cc5)cc([n+]42)-c2cccc[n+]23)c1.F[P-](F)(F)(F)(F)F.F[P-](F)(F)(F)(F)F [Complex 4] | 18900 M⁻¹ | ~ 10 times | 311000 M⁻¹
